# System: Aspergillus flavus
# Assay: Antifungal activity against Aspergillus flavus NCIM 524 assessed as growth inhibition after 3 to 4 days by serial plate dilution method
# Assay type: functional
# Conditions: not given
row,SMILES,MIC [µg/mL]
1,O=C(CCc1c[nH]c2ccc(Cl)cc12)NCCCc1c[nH]c2ccc(OC(F)(F)F)cc12,25
2,Cc1c(CCCNC(=O)CCc2cn(C)c3ccc(Cl)cc23)c2cc(OC(F)(F)F)ccc2n1C,6.25
3,Cn1cc(CCCNC(=O)CCc2c[nH]c3ccc(Cl)cc23)c2cc(Cl)ccc21,25

# System: Staphylococcus aureus
# Assay: Antibacterial activity against Staphylococcus aureus ATCC 25923 assessed as growth inhibition after 16 to 18 hr by serial plate dilution method
# Assay type: functional
# Conditions: not given
row,SMILES,MIC [µg/mL]
1,O=C(CCc1c[nH]c2ccc(Cl)cc12)NCCCc1c[nH]c2ccc(OC(F)(F)F)cc12,6.25
2,Cc1c(CCCNC(=O)CCc2cn(C)c3ccc(Cl)cc23)c2cc(OC(F)(F)F)ccc2n1C,12.5
3,Cn1cc(CCCNC(=O)CCc2c[nH]c3ccc(Cl)cc23)c2cc(Cl)ccc21,25

# System: Mycobacterium tuberculosis
# Assay: Antitubercular activity against Mycobacterium tuberculosis H37Rv ATCC 27294 assessed as growth inhibition at 0.3125 to 5 ug/mL after 7 days by resazurin reduction test
# Assay type: functional
# Conditions: H37Rv ATCC 27294, 168 h
row,SMILES,MIC [µg/mL]
1,Cc1c(CCCNC(=O)CCc2cn(C)c3ccc(Cl)cc23)c2cc(OC(F)(F)F)ccc2n1C,1.25

# System: Klebsiella pneumoniae
# Assay: Antibacterial activity against Klebsiella pneumoniae assessed as growth inhibition after 16 to 18 hr by serial plate dilution method
# Assay type: functional
# Conditions: not given
row,SMILES,MIC [µg/mL]
1,O=C(CCc1c[nH]c2ccc(Cl)cc12)NCCCc1c[nH]c2ccc(OC(F)(F)F)cc12,6.25
2,Cc1c(CCCNC(=O)CCc2cn(C)c3ccc(Cl)cc23)c2cc(OC(F)(F)F)ccc2n1C,12.5
3,Cn1cc(CCCNC(=O)CCc2c[nH]c3ccc(Cl)cc23)c2cc(Cl)ccc21,12.5

# System: Trichophyton mentagrophytes
# Assay: Antifungal activity against Trichophyton mentagrophytes assessed as growth inhibition at […] to […] ug/ml after 3 to 4 days by agar well diffusion method
# Assay type: functional
# Conditions: not given
row,SMILES,diameter of the inhibition zone (DIZ) [mm]
1,O=C(CCc1c[nH]c2ccc(Cl)cc12)NCCCc1c[nH]c2ccc(OC(F)(F)F)cc12,<10
2,Cc1c(CCCNC(=O)CCc2cn(C)c3ccc(Cl)cc23)c2cc(OC(F)(F)F)ccc2n1C,11
3,Cn1cc(CCCNC(=O)CCc2c[nH]c3ccc(Cl)cc23)c2cc(Cl)ccc21,16

# System: Streptococcus pyogenes
# Assay: Antibacterial activity against Streptococcus pyogenes assessed as growth inhibition after 16 to 18 hr by serial plate dilution method
# Assay type: functional
# Conditions: not given
row,SMILES,MIC [µg/mL]
1,O=C(CCc1c[nH]c2ccc(Cl)cc12)NCCCc1c[nH]c2ccc(OC(F)(F)F)cc12,12.5
2,Cc1c(CCCNC(=O)CCc2cn(C)c3ccc(Cl)cc23)c2cc(OC(F)(F)F)ccc2n1C,25
3,Cn1cc(CCCNC(=O)CCc2c[nH]c3ccc(Cl)cc23)c2cc(Cl)ccc21,25

# System: Mycolicibacterium smegmatis
# Assay: Antitubercular activity against Mycobacterium smegmatis ATCC 19420 assessed as growth inhibition at 1 to 100 ug/mL after 7 days by resazurin reduction test
# Assay type: functional
# Conditions: ATCC 19420, 168 h
row,SMILES,MIC [µg/mL]
1,O=C(CCc1c[nH]c2ccc(Cl)cc12)NCCCc1c[nH]c2ccc(OC(F)(F)F)cc12,> 100
2,Cc1c(CCCNC(=O)CCc2cn(C)c3ccc(Cl)cc23)c2cc(OC(F)(F)F)ccc2n1C,> 100
3,Cn1cc(CCCNC(=O)CCc2c[nH]c3ccc(Cl)cc23)c2cc(Cl)ccc21,> 100

# System: Pseudomonas aeruginosa
# Assay: Antibacterial activity against Pseudomonas aeruginosa ATCC 27853 assessed as growth inhibition after 16 to 18 hr by serial plate dilution method
# Assay type: functional
# Conditions: not given
row,SMILES,MIC [µg/mL]
1,O=C(CCc1c[nH]c2ccc(Cl)cc12)NCCCc1c[nH]c2ccc(OC(F)(F)F)cc12,6.25
2,Cc1c(CCCNC(=O)CCc2cn(C)c3ccc(Cl)cc23)c2cc(OC(F)(F)F)ccc2n1C,25
3,Cn1cc(CCCNC(=O)CCc2c[nH]c3ccc(Cl)cc23)c2cc(Cl)ccc21,12.5

# System: Candida albicans
# Assay: Antifungal activity against Candida albicans assessed as growth inhibition after 3 to 4 days by serial plate dilution method
# Assay type: functional
# Conditions: not given
row,SMILES,MIC [µg/mL]
1,O=C(CCc1c[nH]c2ccc(Cl)cc12)NCCCc1c[nH]c2ccc(OC(F)(F)F)cc12,25
2,Cc1c(CCCNC(=O)CCc2cn(C)c3ccc(Cl)cc23)c2cc(OC(F)(F)F)ccc2n1C,25
3,Cn1cc(CCCNC(=O)CCc2c[nH]c3ccc(Cl)cc23)c2cc(Cl)ccc21,25

# System: Aspergillus fumigatus
# Assay: Antifungal activity against Aspergillus fumigatus NCIM 902 assessed as growth inhibition after 3 to 4 days by serial plate dilution method
# Assay type: functional
# Conditions: not given
row,SMILES,MIC [µg/mL]
1,O=C(CCc1c[nH]c2ccc(Cl)cc12)NCCCc1c[nH]c2ccc(OC(F)(F)F)cc12,25
2,Cc1c(CCCNC(=O)CCc2cn(C)c3ccc(Cl)cc23)c2cc(OC(F)(F)F)ccc2n1C,12.5
3,Cn1cc(CCCNC(=O)CCc2c[nH]c3ccc(Cl)cc23)c2cc(Cl)ccc21,6.25

# System: Trichophyton mentagrophytes
# Assay: Antifungal activity against Trichophyton mentagrophytes assessed as growth inhibition after 3 to 4 days by serial plate dilution method
# Assay type: functional
# Conditions: not given
row,SMILES,MIC [µg/mL]
1,O=C(CCc1c[nH]c2ccc(Cl)cc12)NCCCc1c[nH]c2ccc(OC(F)(F)F)cc12,25
2,Cc1c(CCCNC(=O)CCc2cn(C)c3ccc(Cl)cc23)c2cc(OC(F)(F)F)ccc2n1C,12.5
3,Cn1cc(CCCNC(=O)CCc2c[nH]c3ccc(Cl)cc23)c2cc(Cl)ccc21,6.25

# System: Pseudomonas aeruginosa
# Assay type: functional, ATCC 27853
# Conditions: not given
row,SMILES,diameter of the inhibition zone (DIZ) [mm]
1,O=C(CCc1c[nH]c2ccc(Cl)cc12)NCCCc1c[nH]c2ccc(OC(F)(F)F)cc12,16
2,Cc1c(CCCNC(=O)CCc2cn(C)c3ccc(Cl)cc23)c2cc(OC(F)(F)F)ccc2n1C,<10
3,Cn1cc(CCCNC(=O)CCc2c[nH]c3ccc(Cl)cc23)c2cc(Cl)ccc21,11

# System: Mycobacterium tuberculosis
# Assay: Antitubercular activity against Mycobacterium tuberculosis H37Rv ATCC 27294 assessed as growth inhibition at 1 to 100 ug/mL after 7 days by resazurin reduction test
# Assay type: functional
# Conditions: not given
row,SMILES,growth inhibition (GI) [%]
1,O=C(CCc1c[nH]c2ccc(Cl)cc12)NCCCc1c[nH]c2ccc(OC(F)(F)F)cc12,0
2,Cc1c(CCCNC(=O)CCc2cn(C)c3ccc(Cl)cc23)c2cc(OC(F)(F)F)ccc2n1C,<90
3,Cn1cc(CCCNC(=O)CCc2c[nH]c3ccc(Cl)cc23)c2cc(Cl)ccc21,0

# Same assay, conditions: Mycobacterium tuberculosis, H37Rv ATCC 27294, 168 h
row,SMILES,MIC [µg/mL]
1,O=C(CCc1c[nH]c2ccc(Cl)cc12)NCCCc1c[nH]c2ccc(OC(F)(F)F)cc12,> 100
2,Cc1c(CCCNC(=O)CCc2cn(C)c3ccc(Cl)cc23)c2cc(OC(F)(F)F)ccc2n1C,10
3,Cn1cc(CCCNC(=O)CCc2c[nH]c3ccc(Cl)cc23)c2cc(Cl)ccc21,> 100

# System: Staphylococcus aureus
# Assay type: functional, ATCC 25923
# Conditions: not given
row,SMILES,diameter of the inhibition zone (DIZ) [mm]
1,O=C(CCc1c[nH]c2ccc(Cl)cc12)NCCCc1c[nH]c2ccc(OC(F)(F)F)cc12,16
2,Cc1c(CCCNC(=O)CCc2cn(C)c3ccc(Cl)cc23)c2cc(OC(F)(F)F)ccc2n1C,11
3,Cn1cc(CCCNC(=O)CCc2c[nH]c3ccc(Cl)cc23)c2cc(Cl)ccc21,<10

# System: Mycolicibacterium fortuitum
# Assay: Antitubercular activity against Mycobacterium fortuitum ATCC 19542 assessed as growth inhibition at 1 to 100 ug/mL after 7 days by resazurin reduction test
# Assay type: functional
# Conditions: ATCC 19542, 168 h
row,SMILES,MIC [µg/mL]
1,O=C(CCc1c[nH]c2ccc(Cl)cc12)NCCCc1c[nH]c2ccc(OC(F)(F)F)cc12,> 100
2,Cc1c(CCCNC(=O)CCc2cn(C)c3ccc(Cl)cc23)c2cc(OC(F)(F)F)ccc2n1C,> 100
3,Cn1cc(CCCNC(=O)CCc2c[nH]c3ccc(Cl)cc23)c2cc(Cl)ccc21,> 100

# System: Aspergillus flavus
# Assay: Antifungal activity against Aspergillus flavus NCIM 524 assessed as growth inhibition at […] to […] ug/ml after 3 to 4 days by agar well diffusion method
# Assay type: functional
# Conditions: not given
row,SMILES,diameter of the inhibition zone (DIZ) [mm]
1,O=C(CCc1c[nH]c2ccc(Cl)cc12)NCCCc1c[nH]c2ccc(OC(F)(F)F)cc12,<10
2,Cc1c(CCCNC(=O)CCc2cn(C)c3ccc(Cl)cc23)c2cc(OC(F)(F)F)ccc2n1C,16
3,Cn1cc(CCCNC(=O)CCc2c[nH]c3ccc(Cl)cc23)c2cc(Cl)ccc21,<10

# System: Talaromyces marneffei
# Assay: Antifungal activity against Talaromyces marneffei assessed as growth inhibition after 3 to 4 days by serial plate dilution method
# Assay type: functional
# Conditions: not given
row,SMILES,MIC [µg/mL]
1,O=C(CCc1c[nH]c2ccc(Cl)cc12)NCCCc1c[nH]c2ccc(OC(F)(F)F)cc12,25
2,Cc1c(CCCNC(=O)CCc2cn(C)c3ccc(Cl)cc23)c2cc(OC(F)(F)F)ccc2n1C,6.25
3,Cn1cc(CCCNC(=O)CCc2c[nH]c3ccc(Cl)cc23)c2cc(Cl)ccc21,25

# System: Talaromyces marneffei
# Assay: Antifungal activity against Talaromyces marneffei assessed as growth inhibition at […] to […] ug/ml after 3 to 4 days by agar well diffusion method
# Assay type: functional
# Conditions: not given
row,SMILES,diameter of the inhibition zone (DIZ) [mm]
1,O=C(CCc1c[nH]c2ccc(Cl)cc12)NCCCc1c[nH]c2ccc(OC(F)(F)F)cc12,<10
2,Cc1c(CCCNC(=O)CCc2cn(C)c3ccc(Cl)cc23)c2cc(OC(F)(F)F)ccc2n1C,16
3,Cn1cc(CCCNC(=O)CCc2c[nH]c3ccc(Cl)cc23)c2cc(Cl)ccc21,<10

# System: Aspergillus fumigatus
# Assay: Antifungal activity against Aspergillus fumigatus NCIM 902 assessed as growth inhibition at […] to […] ug/ml after 3 to 4 days by agar well diffusion method
# Assay type: functional
# Conditions: not given
row,SMILES,diameter of the inhibition zone (DIZ) [mm]
1,O=C(CCc1c[nH]c2ccc(Cl)cc12)NCCCc1c[nH]c2ccc(OC(F)(F)F)cc12,<10
2,Cc1c(CCCNC(=O)CCc2cn(C)c3ccc(Cl)cc23)c2cc(OC(F)(F)F)ccc2n1C,11
3,Cn1cc(CCCNC(=O)CCc2c[nH]c3ccc(Cl)cc23)c2cc(Cl)ccc21,16

# System: Escherichia coli
# Assay type: functional, ATCC 24922
# Conditions: not given
row,SMILES,diameter of the inhibition zone (DIZ) [mm]
1,O=C(CCc1c[nH]c2ccc(Cl)cc12)NCCCc1c[nH]c2ccc(OC(F)(F)F)cc12,16
2,Cc1c(CCCNC(=O)CCc2cn(C)c3ccc(Cl)cc23)c2cc(OC(F)(F)F)ccc2n1C,11
3,Cn1cc(CCCNC(=O)CCc2c[nH]c3ccc(Cl)cc23)c2cc(Cl)ccc21,11

# System: Escherichia coli
# Assay: Antibacterial activity against Escherichia coli […] assessed as growth inhibition after 16 to 18 hr by serial plate dilution method
# Assay type: functional
# Conditions: not given
row,SMILES,MIC [µg/mL]
1,O=C(CCc1c[nH]c2ccc(Cl)cc12)NCCCc1c[nH]c2ccc(OC(F)(F)F)cc12,6.25
2,Cc1c(CCCNC(=O)CCc2cn(C)c3ccc(Cl)cc23)c2cc(OC(F)(F)F)ccc2n1C,12.5
3,Cn1cc(CCCNC(=O)CCc2c[nH]c3ccc(Cl)cc23)c2cc(Cl)ccc21,12.5

# System: Candida albicans
# Assay: Antifungal activity against Candida albicans assessed as growth inhibition at […] to […] ug/ml after 3 to 4 days by agar well diffusion method
# Assay type: functional
# Conditions: not given
row,SMILES,diameter of the inhibition zone (DIZ) [mm]
1,O=C(CCc1c[nH]c2ccc(Cl)cc12)NCCCc1c[nH]c2ccc(OC(F)(F)F)cc12,<10
2,Cc1c(CCCNC(=O)CCc2cn(C)c3ccc(Cl)cc23)c2cc(OC(F)(F)F)ccc2n1C,<10
3,Cn1cc(CCCNC(=O)CCc2c[nH]c3ccc(Cl)cc23)c2cc(Cl)ccc21,<10

# System: Klebsiella pneumoniae
# Assay type: functional
# Conditions: not given
row,SMILES,diameter of the inhibition zone (DIZ) [mm]
1,O=C(CCc1c[nH]c2ccc(Cl)cc12)NCCCc1c[nH]c2ccc(OC(F)(F)F)cc12,16
2,Cc1c(CCCNC(=O)CCc2cn(C)c3ccc(Cl)cc23)c2cc(OC(F)(F)F)ccc2n1C,11
3,Cn1cc(CCCNC(=O)CCc2c[nH]c3ccc(Cl)cc23)c2cc(Cl)ccc21,11

# System: Streptococcus pyogenes
# Assay type: functional
# Conditions: not given
row,SMILES,diameter of the inhibition zone (DIZ) [mm]
1,O=C(CCc1c[nH]c2ccc(Cl)cc12)NCCCc1c[nH]c2ccc(OC(F)(F)F)cc12,11
2,Cc1c(CCCNC(=O)CCc2cn(C)c3ccc(Cl)cc23)c2cc(OC(F)(F)F)ccc2n1C,<10
3,Cn1cc(CCCNC(=O)CCc2c[nH]c3ccc(Cl)cc23)c2cc(Cl)ccc21,<10

# From ChEMBL document CHEMBL3044921, “Synthesis, characterization, and SAR studies of new (1H-indol-3-yl)alkyl-3-(1H-indol-3-yl)propanamide derivatives as possible antimicrobial and antitubercular agents” (2013)
